One assay concerns the target JAK2 (Homo sapiens (Human), UniProt O60674). Description: LANCE Kinase Assay (JAK2_IC50 selectivity assay). Type of assay: biochemical. The text has this:
In LANCE® Kinase Assay (JAK2_IC50 selectivity assay): JAK2 (Invitrogen, Cat. No PV4288), ATP (Sigma, Cat. No. A7699-1G), DMSO (Sigma, Cat. No. D2650), DTT (Sigma, Cat. No. 43815), LANCE Ultra ULight™-JAK-1 peptide (Perkin Elmer, Cat. No. TRF0121), LANCE Eu-W1024 Anti-phosphotyrosine (PT66) (Perkin Elmer, Cat. No. AD0069), LANCE™ Detection Buffer (Perkin Elmer, Cat. No. CR97-100), Tofacitinib (PharmaBlock Sciences(Nanjing), Inc, Cat. No. PBN2011586-01); Equipments: Envision (Perkin Elmer), Bravo (Agilent); Consumables: 384 well Intermediate plate (Greiner, Cat. No. 781280), 384 well assay plate (Perkin Elmer, Cat. No. 6007299),
The assay involves two steps, the enzymatic step and the detection step with HTRF reagents. Step 1: During the enzymatic step the substrate-biotin is incubated with the kinase of interest. ATP is added to start the reaction. Step 2: The detection reagent catches the phosphorylated substrate and the resulting TR-FRET is proportional to the phosphorylation level.
Compound Preparation: Dissolve the test compounds into 30 mM DMSO solution and put them in nitrogen hood at room temperature for long term storage; Dilute the 30 mM compound in DMSO with 3-fold factor, total 11 concentrations; Aspirate 1 μl compound and then dilute them in 25 folds with kinase buffer. Mix well and balance 30 minutes at room temperature.
Kinase Reaction: Transfer 2.5 μl compounds in kinase buffer (4×) into assay plate by Agilent Bravo. Spin the plate; Transfer 5 μl enzyme mixture into the assay plate by using Eppendorf electronic multi-channel pipette. Spin the plate; Incubate the assay plate for 20 minutes at room temperature (23° C.); Add 2.5 μl kinase buffer with ATP into the assay plate by using Multidrop. Spin and seal the plate; Incubate the assay plate for 90 minutes at room temperature (23° C.).
Stop Reaction: Transfer 10 μl detection reagent (2 nM LANCE Eu-W1024 Anti-phosphotyrosine) into the assay plate by using Eppendorf electronic multi-channel pipette. Spin and seal the plate; Incubate the assay plate at room temperature (23° C.) for 60 minutes.
Detection and Read: The excitation wavelength is 340 nm, the primary emission wavelength is 615 nm and the secondary emission wavelength is 665 nm (for Cryptate and Ulight, respectively). Read the plate with EnVision to get the readout of both wavelengths; Calculate the ratio of 665 nm/615 nm.
IC50 estimates were obtained using the software XLfit (IDBS Inc.).
(In TR-FRET formats the signal depends on donor and acceptor labels being close together.)

Assay [1] has as its system transgenic Drosophila expressing LRRK2-G2019S in dopamine (DA) neurons. As to the kind of experiment: Drosophila model survival rate. Format: in vivo. Conditions: significance compared to DMSO negative control. From the text:
(§1) Drosophila model was used to evaluate Examples in vivo. The GAL4/UAS system developed by Andrea Brand and Norbert Perrimon in 1993 [45] was used to generate transgenic Drosophila expressing LRRK2-G2019S in dopamine (DA) neurons. The system has two parts: the GAL4 gene, encoding the yeast transcription activator protein GAL4, and the UAS (Upstream Activation Sequence), an enhancer to which GAL4 specifically binds to activate gene transcription. This system takes advantage of the yeast GAL4 transcription factor, which binds specifically to the UAS.
To express LRRK2-G2019S in DA neurons, the UAS-Wild Type-LRRK2 and UAS-G2019S-LRRK2 transgenes were combined with the dopa decarboxylase (ddc)-GAL4 driver. The 10 μM GW5074 was used for the positive control. […]
Twenty newly enclosed female Drosophila were collected and placed in a food vial. The Drosophila were moved to fresh food vials every other day at which time deaths were scored.
Based on Drosophila′ survival curve, the 50% survival time parameter indicates the time at which half of the Drosophila remained alive and was used to compare the survival ratio between the different groups. The mean 50% survival times and the standard errors were calculated based on 4 separate experiments for each group. The data were analysed by GraphPad PRISM® 6.0 software.

The target of assay [2] is LRRK2 (phospho S935) in Drosophila brain lysates (Homo sapiens (Human), UniProt Q5S007, G2019S). As to the kind of experiment: Drosophila model kinase assays at week 6. Type of assay: in vivo. The settings on record: ratio of phosphate LRRK2 protein to Flag protein, significance compared to DMSO negative control.
LRRK2 (phospho S935) in Drosophila brain lysates, sequence (Q5S007 whole entry G2019S): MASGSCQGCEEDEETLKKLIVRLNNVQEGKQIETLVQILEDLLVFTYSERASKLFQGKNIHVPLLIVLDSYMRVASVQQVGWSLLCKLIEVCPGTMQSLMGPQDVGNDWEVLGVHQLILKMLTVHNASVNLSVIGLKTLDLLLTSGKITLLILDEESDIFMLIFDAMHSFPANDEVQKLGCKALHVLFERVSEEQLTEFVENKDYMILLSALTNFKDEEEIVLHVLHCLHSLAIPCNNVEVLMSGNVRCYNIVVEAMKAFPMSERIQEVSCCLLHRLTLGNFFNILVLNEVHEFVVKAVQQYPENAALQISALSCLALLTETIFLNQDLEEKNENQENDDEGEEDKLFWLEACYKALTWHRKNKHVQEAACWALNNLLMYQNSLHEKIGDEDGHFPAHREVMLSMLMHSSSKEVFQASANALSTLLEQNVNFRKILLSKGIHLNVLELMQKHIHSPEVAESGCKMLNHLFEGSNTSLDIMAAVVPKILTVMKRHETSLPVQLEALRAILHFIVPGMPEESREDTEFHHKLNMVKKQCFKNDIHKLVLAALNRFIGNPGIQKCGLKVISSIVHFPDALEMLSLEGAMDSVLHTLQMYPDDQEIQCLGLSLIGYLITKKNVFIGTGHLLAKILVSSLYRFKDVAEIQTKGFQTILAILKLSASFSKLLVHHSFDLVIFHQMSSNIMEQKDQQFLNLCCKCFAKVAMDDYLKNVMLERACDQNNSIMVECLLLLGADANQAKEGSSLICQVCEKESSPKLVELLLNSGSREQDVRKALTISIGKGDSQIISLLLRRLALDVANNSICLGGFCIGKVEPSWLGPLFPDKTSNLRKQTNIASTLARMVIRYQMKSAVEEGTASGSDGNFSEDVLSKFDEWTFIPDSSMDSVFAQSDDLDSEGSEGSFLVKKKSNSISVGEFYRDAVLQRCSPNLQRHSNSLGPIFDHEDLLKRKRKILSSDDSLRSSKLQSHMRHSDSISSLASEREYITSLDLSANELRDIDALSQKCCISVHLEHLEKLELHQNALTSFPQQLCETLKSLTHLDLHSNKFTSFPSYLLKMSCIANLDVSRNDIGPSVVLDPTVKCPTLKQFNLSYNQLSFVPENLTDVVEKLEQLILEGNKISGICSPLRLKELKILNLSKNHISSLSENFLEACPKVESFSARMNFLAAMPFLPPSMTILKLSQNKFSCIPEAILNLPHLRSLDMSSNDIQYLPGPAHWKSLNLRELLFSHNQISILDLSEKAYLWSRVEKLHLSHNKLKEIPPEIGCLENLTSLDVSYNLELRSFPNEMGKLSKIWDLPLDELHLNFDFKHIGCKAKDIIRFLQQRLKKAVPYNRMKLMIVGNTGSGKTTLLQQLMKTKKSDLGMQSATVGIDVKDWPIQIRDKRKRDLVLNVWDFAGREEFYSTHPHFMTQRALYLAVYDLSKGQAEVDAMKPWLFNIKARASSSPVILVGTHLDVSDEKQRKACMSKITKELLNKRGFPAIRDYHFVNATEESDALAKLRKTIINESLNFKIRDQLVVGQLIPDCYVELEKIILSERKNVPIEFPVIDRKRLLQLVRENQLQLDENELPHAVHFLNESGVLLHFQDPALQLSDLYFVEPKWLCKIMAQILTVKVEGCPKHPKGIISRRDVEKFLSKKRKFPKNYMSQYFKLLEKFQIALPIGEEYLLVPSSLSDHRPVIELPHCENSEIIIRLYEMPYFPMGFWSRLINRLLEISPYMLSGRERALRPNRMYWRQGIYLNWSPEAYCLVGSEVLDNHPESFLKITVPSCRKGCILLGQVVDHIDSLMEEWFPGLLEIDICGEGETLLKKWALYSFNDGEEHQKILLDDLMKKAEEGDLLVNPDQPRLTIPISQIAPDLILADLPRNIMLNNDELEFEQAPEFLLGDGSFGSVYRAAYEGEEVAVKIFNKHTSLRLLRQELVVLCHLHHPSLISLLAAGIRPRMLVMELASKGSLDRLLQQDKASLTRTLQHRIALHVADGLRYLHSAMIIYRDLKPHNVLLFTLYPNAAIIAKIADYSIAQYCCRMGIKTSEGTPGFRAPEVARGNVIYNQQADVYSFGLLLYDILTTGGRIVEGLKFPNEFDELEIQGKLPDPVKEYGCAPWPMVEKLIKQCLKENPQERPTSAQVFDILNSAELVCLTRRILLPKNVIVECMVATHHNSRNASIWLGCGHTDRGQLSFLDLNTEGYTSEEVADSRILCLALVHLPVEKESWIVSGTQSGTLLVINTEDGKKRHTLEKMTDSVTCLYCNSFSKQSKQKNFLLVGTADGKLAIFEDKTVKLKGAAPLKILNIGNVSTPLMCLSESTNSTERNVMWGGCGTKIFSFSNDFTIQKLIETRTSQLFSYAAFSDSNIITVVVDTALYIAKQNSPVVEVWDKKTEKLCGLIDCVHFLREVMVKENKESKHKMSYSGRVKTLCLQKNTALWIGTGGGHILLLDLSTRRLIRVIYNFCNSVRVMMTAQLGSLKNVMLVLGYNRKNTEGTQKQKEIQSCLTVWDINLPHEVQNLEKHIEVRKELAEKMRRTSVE
Procedure: The 10 μM GW5074 was used for the positive control. The negative control group was DMSO control (all compounds were dissolved in DMSO with 1:1000 dillution). The Drosophila were maintained at 25° C. on a 12 hour light-12 hour dark cycle. GW5074 was used as positive control [47].
The adult Drosophila heads were homogenized on ice, and the brain lysates were performed kinase reaction in kinase reaction buffer with ATP and DTT.
Then the lysates were electrophoresed through 12% SDS-PAGE gels and transferred to PVDF membranes (Millipore). The membranes were blocked in TBST with 5% skimmed milk for 1 hour at room temperature and then incubated in anti-LRRK2 pSer935 antibody (Abcam, ab133450) and anti-Flag antibody overnight at 4° C.
The proteins were detected with HRP-conjugated secondary antibodies and ECL detection reagents. The optical density of immunoblotting was analysed by Image J software and the ratio of phosphate LRRK2 protein compare to Flag protein were calculated and the data were analysed by GraphPad PRISM® 6.0 software.
In assay [3] the test system is transgenic Drosophila expressing LRRK2-G2019S in dopamine (DA) neurons. As to the kind of experiment: Drosophila model climbing assay (negative geotaxis). Format: in vivo. Conditions: significance compared to DMSO negative control.
Text: as §1
To express LRRK2-G2019S in DA neurons, the UAS-Wild Type-LRRK2 and UAS-G2019S-LRRK2 transgenes were combined with the dopa decarboxylase (ddc)-GAL4 driver. The 10 μM GW5074 was used for the positive control. The negative control group was DMSO control (all compounds were dissolved in DMSO with 1:1000 dillution). The Drosophila were maintained at 25° C. on a 12 hour light-12 hour dark cycle. GW5074 was used as positive control.
The negative geotaxis assay was used to analyse the locomotors ability of the Drosophila. Twenty Drosophila from each vial and 4 vials for each group were performed the climbing assay weekly.
The tested Drosophila were transferred into a vertical plastic tube (15 cm tall, 1.5 cm in diameter). After 30 min of rest at room temperature, the Drosophila were gently tapped to the bottom of the tube, the numbers of Drosophila that could climb to or above the test line within 10 seconds were counted and the percent were calculated.
The climbing abilities were analysed based on three separate experiments for each vial and the data were analysed by GraphPad PRISM® 6.0 software.

JAK2, sequence (O60674 whole entry): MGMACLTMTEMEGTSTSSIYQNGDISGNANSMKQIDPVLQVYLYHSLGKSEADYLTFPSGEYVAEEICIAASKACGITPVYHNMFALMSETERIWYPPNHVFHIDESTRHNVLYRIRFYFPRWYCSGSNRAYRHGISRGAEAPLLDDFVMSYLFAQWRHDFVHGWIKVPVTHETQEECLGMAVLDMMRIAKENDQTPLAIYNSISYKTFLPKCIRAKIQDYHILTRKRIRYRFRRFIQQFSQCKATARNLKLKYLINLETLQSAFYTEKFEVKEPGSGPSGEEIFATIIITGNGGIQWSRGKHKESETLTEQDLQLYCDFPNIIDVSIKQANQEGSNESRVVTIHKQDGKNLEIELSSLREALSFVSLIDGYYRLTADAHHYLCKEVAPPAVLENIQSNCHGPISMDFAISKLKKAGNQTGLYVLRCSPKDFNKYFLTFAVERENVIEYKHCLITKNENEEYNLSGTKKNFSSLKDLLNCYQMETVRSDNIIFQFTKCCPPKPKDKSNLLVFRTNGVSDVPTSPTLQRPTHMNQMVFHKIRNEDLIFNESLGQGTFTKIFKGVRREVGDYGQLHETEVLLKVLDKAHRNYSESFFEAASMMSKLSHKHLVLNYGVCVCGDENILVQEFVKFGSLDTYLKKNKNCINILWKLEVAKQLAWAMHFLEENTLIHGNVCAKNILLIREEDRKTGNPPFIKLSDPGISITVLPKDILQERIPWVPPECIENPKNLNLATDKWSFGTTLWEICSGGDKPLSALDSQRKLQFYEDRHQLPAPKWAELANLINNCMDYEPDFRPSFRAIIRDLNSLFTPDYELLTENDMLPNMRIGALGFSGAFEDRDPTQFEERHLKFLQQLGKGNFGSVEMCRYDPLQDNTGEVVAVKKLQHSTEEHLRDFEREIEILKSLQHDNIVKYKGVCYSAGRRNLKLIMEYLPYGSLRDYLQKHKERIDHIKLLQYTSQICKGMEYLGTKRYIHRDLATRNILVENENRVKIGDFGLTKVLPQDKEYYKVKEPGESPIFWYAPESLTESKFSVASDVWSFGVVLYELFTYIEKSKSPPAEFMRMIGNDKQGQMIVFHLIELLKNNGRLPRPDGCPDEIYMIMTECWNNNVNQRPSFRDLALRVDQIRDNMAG

In the case of `c1cc2[nH]nc3c2c(n1)N(C1CCC1)CCC3` [Example 22, 6-cyclobutyl-6,7,8,9-tetrahydro-2H-1,2,5,6-tetraazabenzo[cd]azulene], half-maximal inhibition against JAK2 (IC50) required 8.4 µM.
`c1cc2[nH]nc3c2c(n1)N(C1CCOCC1)CCC3` [Example 29, 6-(tetrahydro-2H-pyran-4-yl)-6,7,8,9-tetrahydro-2H-1,2,5,6-tetraazabenzo[cd]azulene]: the “Survival Rate” value in assay [1] is “* (P < 0.05, compared to DMSO negative control)”. For the same compound, the “Kinase Assays” value in assay [2] is “* (P < 0.05, compared to DMSO negative control)”. Also, in assay [3] (3 weeks), the “Climbing Assay 3 weeks” value was “* (P < 0.05, compared to DMSO negative control)”. The “Climbing Assay 4 weeks” value in assay [3] (4 weeks) is given as “** (P < 0.01, compared to DMSO negative control)”. Also, the “Climbing Assay 5 weeks” value in assay [3] (5 weeks) was “* (P < 0.05, compared to DMSO negative control)”. In assay [3] (6 weeks), the “Climbing Assay 6 weeks” value is “* (P < 0.05, compared to DMSO negative control)”.
`CC(C)n1ncc2c1CN(C1CCN(C)CC1)c1nccc3[nH]nc-2c13` [Example 68]: half-maximal inhibition against JAK2 (IC50) required 6.3 µM.
